From ChEMBL document CHEMBL1201862, “PubChem BioAssay data set” (2004)
Calls of active or inactive are those of the source.

How the values were obtained:
[1] = HEK293 cell cytotoxicity, dose response, cytotoxicity control, cherry-picks, set 5 (AID 1053117); format: functional, cell-based
[2] = HepG2 cell cytotoxicity, dose response, cytotoxicity control, cherry-picks, set 5 (AID 1053118); format: functional, cell-based
Mu-type opioid receptor = Mu-type opioid receptor (Homo sapiens, UniProt P35372); format: functional, cell-based;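 also: U2OS cells with beta-arrestin recruitment to OPRM1 by beta-gal complementation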
Chain of Mu-type opioid receptor (P35372 whole entry): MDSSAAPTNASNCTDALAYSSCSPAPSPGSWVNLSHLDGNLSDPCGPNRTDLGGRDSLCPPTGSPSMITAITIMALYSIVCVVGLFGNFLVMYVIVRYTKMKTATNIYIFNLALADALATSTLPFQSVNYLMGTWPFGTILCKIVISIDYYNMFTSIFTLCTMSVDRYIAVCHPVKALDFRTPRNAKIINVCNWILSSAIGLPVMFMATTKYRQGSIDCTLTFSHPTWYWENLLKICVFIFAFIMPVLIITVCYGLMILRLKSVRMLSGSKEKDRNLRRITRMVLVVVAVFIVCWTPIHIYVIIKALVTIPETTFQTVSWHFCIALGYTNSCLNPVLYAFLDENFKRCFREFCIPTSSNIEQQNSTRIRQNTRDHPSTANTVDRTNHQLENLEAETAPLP

Coagulation factor XII = target: T1, Coagulation factor XII (Homo sapiens, UniProt P00748); experiment: Factor XIIa Dose Response Confirmation from Single Well HTS. [Related pubchem assays (depositor defined):AID701]; format: functional
T1 sequence (P00748 whole entry): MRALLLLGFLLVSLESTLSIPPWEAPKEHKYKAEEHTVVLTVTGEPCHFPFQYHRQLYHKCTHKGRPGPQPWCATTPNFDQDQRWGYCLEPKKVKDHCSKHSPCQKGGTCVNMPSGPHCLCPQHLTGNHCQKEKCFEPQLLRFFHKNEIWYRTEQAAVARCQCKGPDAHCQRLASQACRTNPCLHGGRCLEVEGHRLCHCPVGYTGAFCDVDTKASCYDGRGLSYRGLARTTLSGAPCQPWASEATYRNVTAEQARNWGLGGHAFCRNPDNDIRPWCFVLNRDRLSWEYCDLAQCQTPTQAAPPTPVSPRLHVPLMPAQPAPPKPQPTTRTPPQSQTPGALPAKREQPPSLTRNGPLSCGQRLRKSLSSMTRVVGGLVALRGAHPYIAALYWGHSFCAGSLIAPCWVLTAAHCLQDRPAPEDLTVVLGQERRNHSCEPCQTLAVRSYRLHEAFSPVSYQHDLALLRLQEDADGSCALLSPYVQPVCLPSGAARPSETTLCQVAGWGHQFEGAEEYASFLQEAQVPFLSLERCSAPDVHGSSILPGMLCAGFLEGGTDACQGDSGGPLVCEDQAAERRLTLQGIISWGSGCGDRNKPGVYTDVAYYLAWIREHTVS

[3] = target: 5-hydroxytryptamine receptor 2A (Mus musculus, UniProt P35363); format: functional, cell-based;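 also: CHO-K1 cells with tagged receptor and beta-arrestin; agonist potency measured as compound-induced activation of the receptor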
Chain of 5-hydroxytryptamine receptor 2A (P35363 whole entry): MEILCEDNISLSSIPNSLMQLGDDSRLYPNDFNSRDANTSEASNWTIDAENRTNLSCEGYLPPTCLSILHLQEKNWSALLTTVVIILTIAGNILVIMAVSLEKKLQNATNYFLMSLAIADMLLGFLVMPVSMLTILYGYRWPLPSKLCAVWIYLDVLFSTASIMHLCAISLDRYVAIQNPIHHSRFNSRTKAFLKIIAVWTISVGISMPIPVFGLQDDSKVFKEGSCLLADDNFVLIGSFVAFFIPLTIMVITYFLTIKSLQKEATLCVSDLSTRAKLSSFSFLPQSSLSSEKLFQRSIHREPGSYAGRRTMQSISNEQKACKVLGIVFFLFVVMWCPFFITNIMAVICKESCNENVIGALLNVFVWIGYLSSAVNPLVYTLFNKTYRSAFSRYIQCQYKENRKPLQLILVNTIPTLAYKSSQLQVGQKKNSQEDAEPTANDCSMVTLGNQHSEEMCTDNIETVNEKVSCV

[4] = target: T2, Scavenger receptor class B member 1 (Mus musculus, UniProt Q61009); experiment: inhibitors of SR-BI-mediated HDL uptake, dose response, cell-based, ldlA[mSR-BI] CHO, DiI fluorescence, dry powder, set 10 (AID 624029); format: functional
T2 sequence (Q61009 whole entry): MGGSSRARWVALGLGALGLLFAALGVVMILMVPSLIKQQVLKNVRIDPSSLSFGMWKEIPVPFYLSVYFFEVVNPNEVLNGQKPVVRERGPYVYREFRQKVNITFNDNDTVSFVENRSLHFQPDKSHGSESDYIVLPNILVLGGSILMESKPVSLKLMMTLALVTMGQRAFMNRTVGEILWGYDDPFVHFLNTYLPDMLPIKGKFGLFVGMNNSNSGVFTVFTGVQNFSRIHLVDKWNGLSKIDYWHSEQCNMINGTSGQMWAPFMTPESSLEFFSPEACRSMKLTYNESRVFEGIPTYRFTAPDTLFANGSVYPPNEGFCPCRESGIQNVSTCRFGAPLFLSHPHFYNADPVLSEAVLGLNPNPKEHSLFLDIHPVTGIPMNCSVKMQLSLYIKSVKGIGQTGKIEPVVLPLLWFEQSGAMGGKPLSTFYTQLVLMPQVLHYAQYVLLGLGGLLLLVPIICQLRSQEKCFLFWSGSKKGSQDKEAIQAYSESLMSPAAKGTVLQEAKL

[5] = target: T2, Scavenger receptor class B member 1; experiment: inhibitors of SR-BI dependent HDL uptake, dose response, ldlA[mSR-BI] CHO cells, fluorescence plate reader, dry powder, set 9 (AID 623880); format: functional, cell-based
[6] = IGROV1 ovarian cancer cell cytotoxicity, dose response, PAX8 inhibitor project, plate reader, dry powder samples (AID 743043); format: functional, cell-based; details: IGROV-1
[7] = cytotoxicity in OVCAR8 ovarian cancer cells, dose response, PAX8 project, cell-based, plate reader, dry powder samples (AID 743197); format: functional; details: OVCAR-8
Paired box protein Pax-8 = Paired box protein Pax-8 (Homo sapiens, UniProt Q06710); experiment: inhibitors of PAX8-driven TPO luciferase reporter, dose response, RMG-I cells, cherry-pick (AID 687027); format: functional, cell-based;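 also: luciferase reporter driven by Pax8 target thyroperoxidase promoter measured by SteadyGlo luminescence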
Chain of Paired box protein Pax-8 (Q06710 whole entry): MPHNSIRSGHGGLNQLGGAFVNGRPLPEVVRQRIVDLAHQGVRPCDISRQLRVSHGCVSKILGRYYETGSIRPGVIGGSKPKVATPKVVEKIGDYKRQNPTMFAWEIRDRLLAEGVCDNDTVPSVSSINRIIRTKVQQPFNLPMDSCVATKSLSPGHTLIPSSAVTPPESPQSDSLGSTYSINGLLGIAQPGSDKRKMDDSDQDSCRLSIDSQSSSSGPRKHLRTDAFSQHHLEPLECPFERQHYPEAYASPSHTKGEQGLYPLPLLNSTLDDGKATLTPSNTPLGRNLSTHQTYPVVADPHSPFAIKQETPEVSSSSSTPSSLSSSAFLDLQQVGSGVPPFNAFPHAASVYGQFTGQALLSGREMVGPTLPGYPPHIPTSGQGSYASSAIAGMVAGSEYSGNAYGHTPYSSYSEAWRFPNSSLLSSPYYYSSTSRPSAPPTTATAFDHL

[8] = A Cell-Based Confirmatory Screen for Compounds that Inhibit VEEV, TC-83 (3).; format: functional
[9] = lymphoblastoid cell cytotoxicity, dose response, cytotoxicity control, plate reader, dry powder, set 2 (AID 624367); format: functional
[10] = target: Metabotropic glutamate receptor 3 (Rattus norvegicus, UniProt P31422); experiment: mGlu3 NAM potency via calcium readout, dose response, mGlu3 NAM project, TREx293 cells, Galpha15, calcium flux (AID 651840); format: functional
Chain of Metabotropic glutamate receptor 3 (P31422 whole entry): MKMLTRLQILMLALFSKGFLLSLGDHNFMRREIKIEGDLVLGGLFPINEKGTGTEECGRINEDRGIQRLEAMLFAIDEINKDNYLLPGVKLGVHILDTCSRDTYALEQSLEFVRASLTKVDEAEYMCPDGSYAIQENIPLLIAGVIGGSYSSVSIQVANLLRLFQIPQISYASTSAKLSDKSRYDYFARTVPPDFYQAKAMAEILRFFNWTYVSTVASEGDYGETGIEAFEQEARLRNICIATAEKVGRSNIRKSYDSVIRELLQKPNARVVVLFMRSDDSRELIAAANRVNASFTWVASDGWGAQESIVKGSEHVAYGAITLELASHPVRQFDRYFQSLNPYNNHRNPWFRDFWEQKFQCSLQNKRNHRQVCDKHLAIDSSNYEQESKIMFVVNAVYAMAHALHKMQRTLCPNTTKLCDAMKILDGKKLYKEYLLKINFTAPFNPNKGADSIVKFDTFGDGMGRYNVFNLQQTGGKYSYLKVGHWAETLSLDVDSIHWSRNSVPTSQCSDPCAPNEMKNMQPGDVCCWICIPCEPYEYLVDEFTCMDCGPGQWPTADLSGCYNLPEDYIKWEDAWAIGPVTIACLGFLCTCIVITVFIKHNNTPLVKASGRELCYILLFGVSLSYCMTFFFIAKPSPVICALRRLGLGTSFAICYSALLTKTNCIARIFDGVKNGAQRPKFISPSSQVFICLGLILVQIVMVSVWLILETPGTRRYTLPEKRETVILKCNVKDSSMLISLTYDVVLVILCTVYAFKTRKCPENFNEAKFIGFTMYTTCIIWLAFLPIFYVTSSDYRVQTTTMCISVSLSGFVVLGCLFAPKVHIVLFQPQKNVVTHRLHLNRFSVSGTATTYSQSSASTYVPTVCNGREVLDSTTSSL

[11] = target: T3, High affinity choline transporter 1 (Homo sapiens, UniProt Q9GZV3); experiment: CHT choline uptake inhibitors, dose response, cell-based, HEK-293 hCHT, [3H]-choline uptake (AID 652177); format: functional
T3 sequence (Q9GZV3 whole entry): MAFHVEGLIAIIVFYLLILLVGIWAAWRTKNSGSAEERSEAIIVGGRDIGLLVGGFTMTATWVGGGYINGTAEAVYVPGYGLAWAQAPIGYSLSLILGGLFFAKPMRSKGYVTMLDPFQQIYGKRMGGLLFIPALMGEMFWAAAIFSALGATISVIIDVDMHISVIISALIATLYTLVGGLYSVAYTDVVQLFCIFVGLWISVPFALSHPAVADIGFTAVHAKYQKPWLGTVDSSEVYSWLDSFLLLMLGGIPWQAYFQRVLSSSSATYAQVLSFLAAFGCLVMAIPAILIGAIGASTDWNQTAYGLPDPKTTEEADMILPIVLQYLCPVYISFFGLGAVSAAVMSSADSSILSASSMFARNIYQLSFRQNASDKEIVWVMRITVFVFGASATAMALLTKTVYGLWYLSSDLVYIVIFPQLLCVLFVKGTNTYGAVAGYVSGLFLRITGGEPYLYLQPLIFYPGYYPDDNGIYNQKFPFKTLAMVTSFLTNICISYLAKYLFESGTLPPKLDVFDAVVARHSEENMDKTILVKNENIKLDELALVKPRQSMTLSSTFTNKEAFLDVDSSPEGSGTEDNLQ

[12] = HEK293T cell cytotoxicity, dose response, cytotoxicity control for HIV Vif inhibitor project, cherry-picks (AID 652208); format: functional, cell-based
Beta-lactamase [13] = target: T4, Beta-lactamase (Pseudomonas aeruginosa, UniProt Q79MP6); experiment: IMP-1 metallo-beta-lactamase inhibitors, dose response, selectivity assay for VIM-2 inhibitor project, biochemical, epi-absorbance (AID 1920)
T4 sequence (Q79MP6 whole entry): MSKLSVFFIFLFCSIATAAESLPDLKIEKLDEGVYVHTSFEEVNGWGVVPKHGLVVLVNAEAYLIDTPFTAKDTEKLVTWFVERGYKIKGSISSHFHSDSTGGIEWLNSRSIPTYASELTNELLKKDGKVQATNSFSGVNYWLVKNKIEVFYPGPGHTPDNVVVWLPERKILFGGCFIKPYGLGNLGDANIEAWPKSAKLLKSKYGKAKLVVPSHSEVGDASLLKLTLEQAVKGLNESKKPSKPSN

Beta-lactamase [14] = target: Beta-lactamase (Salmonella choleraesuis (strain SC-B67), UniProt Q5J463); experiment: Epi-absorbance-based counterscreen for selective VIM-2 inhibitors: dose response biochemical high throughput screening assay to identify inhibitors of TEM-1 serine-beta-lactamase.
Chain of Beta-lactamase (Salmonella choleraesuis (strain SC-B67), UniProt Q5J463) (Q5J463 whole entry): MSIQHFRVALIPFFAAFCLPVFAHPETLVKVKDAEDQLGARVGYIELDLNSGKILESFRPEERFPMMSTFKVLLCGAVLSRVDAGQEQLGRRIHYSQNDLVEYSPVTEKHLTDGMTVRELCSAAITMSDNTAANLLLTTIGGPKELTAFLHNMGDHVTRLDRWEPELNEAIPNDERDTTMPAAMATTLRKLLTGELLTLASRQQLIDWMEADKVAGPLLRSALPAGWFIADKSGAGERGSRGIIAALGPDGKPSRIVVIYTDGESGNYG

Beta Lactamase [15] = target: T5, Beta Lactamase (Pseudomonas aeruginosa, UniProt Q932Y6); experiment: VIM-2 inhibitor FRET-based artefact check, dose response, artefact control for selective VIM-2 inhibitor project, biochemical, FRET readout, CCF2 substrate (AID 1926)
T5 sequence (Q932Y6 whole entry): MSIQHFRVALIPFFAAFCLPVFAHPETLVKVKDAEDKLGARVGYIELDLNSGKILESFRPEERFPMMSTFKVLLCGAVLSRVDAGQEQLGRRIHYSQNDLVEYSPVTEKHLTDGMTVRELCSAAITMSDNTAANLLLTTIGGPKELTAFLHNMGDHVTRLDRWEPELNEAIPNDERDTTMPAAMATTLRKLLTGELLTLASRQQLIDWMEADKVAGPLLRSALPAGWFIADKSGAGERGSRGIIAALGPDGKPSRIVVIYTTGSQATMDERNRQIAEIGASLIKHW

Beta-lactamase [16] = target: T4, Beta-lactamase; experiment: […] counterscreen for selective VIM-2 inhibitors: dose response biochemical high throughput screening assay to identify inhibitors of IMP-1 metallo-beta-lactamase.
Beta Lactamase [17] = target: T5, Beta Lactamase; experiment: VIM-2 metallo-beta-lactamase inhibitor potency, dose response, biochemical, epi-absorbance readout, selective inhibitors (AID 1919)
Cryptococcus neoformans = experiment: PubChem AID 686997; format: functional, organism-based
[18] = HEK293 Cytotoxicity Assay Measured in Cell-Based System Using Plate Reader - 7071-01_Inhibitor_Dose_CherryPick_Activity_Set2.; format: functional
HEK293 = experiment: HEK293T cell cytotoxicity, dose response, cytotoxicity control, ATP luminescence, cherry-pick samples (AID 687005); format: functional, cell-based; details: Homo sapiens;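 also: cells exposed to compound for 48 hours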
HeLa = experiment: HeLa cell cytotoxicity, dose response, cytotoxicity control, ATP luminescence, cherry-pick samples (AID 687004); format: functional, cell-based; details: Homo sapiens
[19] = target: Disintegrin and metalloproteinase domain-containing protein 17 (Homo sapiens, UniProt P78536); experiment: exosite inhibitors of ADAM17, dose response, biochemical (AID 743260)
Chain of Disintegrin and metalloproteinase domain-containing protein 17 (P78536 whole entry, the tested form may be a part): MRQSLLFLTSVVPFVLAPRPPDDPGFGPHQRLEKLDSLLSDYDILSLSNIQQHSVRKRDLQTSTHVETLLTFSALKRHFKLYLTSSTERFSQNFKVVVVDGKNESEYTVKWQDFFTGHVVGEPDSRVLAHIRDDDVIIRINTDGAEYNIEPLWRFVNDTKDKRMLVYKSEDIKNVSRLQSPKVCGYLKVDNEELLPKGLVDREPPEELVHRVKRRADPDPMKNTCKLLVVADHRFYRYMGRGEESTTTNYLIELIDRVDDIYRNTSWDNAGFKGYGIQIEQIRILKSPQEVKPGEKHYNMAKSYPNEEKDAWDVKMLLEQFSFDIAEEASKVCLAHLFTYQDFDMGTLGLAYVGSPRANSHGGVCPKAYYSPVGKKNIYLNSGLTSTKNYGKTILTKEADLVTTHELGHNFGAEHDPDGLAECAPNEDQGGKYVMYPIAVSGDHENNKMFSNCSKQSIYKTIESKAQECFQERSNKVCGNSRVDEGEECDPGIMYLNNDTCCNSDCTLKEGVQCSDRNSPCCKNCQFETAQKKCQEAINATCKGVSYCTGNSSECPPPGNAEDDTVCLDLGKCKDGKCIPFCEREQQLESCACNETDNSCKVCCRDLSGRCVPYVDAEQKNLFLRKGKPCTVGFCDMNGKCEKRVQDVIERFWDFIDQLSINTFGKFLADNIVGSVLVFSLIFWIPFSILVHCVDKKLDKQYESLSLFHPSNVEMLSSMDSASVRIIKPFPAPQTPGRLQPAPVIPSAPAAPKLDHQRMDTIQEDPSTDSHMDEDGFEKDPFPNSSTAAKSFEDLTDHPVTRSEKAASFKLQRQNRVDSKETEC

[20] = cytotoxicity toward NIH3T3 fibroblasts, dose response, counter-screen, cell-based, ATP luminescence, mouse fibroblasts (AID 2010); format: functional;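 also: cells exposed to compound for about 90 hours before reading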
[21] = inhibitors of intracellular T. cruzi replication, confirmation, NIH3T3 host cells, beta-gal luminescence (AID 2044); format: functional, cell-based;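 also: intracellular parasites grown in NIH/3T3 mouse fibroblasts as host cells; luminescent beta-galactosidase reporter signal from transgenic T. cruzi replicating inside host cells; inhibitors lower the luminescence signal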
[22] = ADAM10 protease inhibitors, dose response, selectivity assay for ADAM17 exosite inhibitor project, biochemical, FRET peptide substrate, recombinant human ADAM10 (AID 743259);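 also: ADAM10 enzyme cleaving a FRET peptide substrate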
[23] = target: T6, Sentrin-specific protease 1 (Homo sapiens, UniProt Q9P0U3); experiment: Dose response confirmation of small molecule inhibitors of the catalytic domain of the SUMO protease, SENP1 in a FRET assay.; format: functional; details: read-out: IC50_Mean
T6 sequence (Q9P0U3 whole entry): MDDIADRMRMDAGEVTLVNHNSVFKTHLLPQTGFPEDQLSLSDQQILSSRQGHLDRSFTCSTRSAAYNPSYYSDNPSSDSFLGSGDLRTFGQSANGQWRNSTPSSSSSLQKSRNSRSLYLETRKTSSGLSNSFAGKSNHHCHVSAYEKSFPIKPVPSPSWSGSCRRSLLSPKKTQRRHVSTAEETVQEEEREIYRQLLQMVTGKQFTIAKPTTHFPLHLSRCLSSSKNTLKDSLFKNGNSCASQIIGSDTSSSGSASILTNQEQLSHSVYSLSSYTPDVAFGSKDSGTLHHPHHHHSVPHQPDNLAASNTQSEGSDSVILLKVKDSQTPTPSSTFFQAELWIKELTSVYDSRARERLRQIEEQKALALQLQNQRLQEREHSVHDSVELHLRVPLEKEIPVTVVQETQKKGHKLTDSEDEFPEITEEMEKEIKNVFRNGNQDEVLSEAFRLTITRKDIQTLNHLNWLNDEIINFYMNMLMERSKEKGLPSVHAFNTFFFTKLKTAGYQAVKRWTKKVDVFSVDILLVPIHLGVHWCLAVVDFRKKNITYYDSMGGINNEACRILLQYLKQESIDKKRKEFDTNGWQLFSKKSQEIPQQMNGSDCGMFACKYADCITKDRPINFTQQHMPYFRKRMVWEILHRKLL

[24] = target: T6, Sentrin-specific protease 1; experiment: potency of human SENP1 inhibitors, dose response, biochemical, kinetic FRET (AID 651697); format: functional; details: read-out: IC50_Mean
[25] = HEK293 cell cytotoxicity, dose response, cytotoxicity control, plate reader, cherry-picked samples (AID 743446); format: functional, cell-based
[26] = LGR2 antagonists, dose response, cell-based, HEK293, CRE-luciferase reporter, cherry pick (AID 743342); format: functional
[27] = A549 cell cytotoxicity, dose response, cytotoxicity control, plate reader, cherry-pick, antagonist series (AID 743412); format: functional, cell-based
[28] = MC4R antagonists, dose response, counter-screen for LGR2 antagonist project, cell-based, plate reader, cherry pick (AID 743444); format: functional;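 also: transfected HEK 293 cells stimulated with alpha-MSH peptide; potency of inhibitors of the alpha-MSH evoked signal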
[29] = HepG2 cell cytotoxicity, dose response, cytotoxicity control, plate reader, cherry-pick, antagonist series (AID 743416); format: functional, cell-based
[30] = target: Nuclear receptor subfamily 0 group B member 1 (Homo sapiens, UniProt P51843); format: functional, cell-based;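 also: HEK293T cells transfected with SF-1 and DAX-1 plus StAR promoter luciferase reporter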
Chain of Nuclear receptor subfamily 0 group B member 1 (P51843 whole entry): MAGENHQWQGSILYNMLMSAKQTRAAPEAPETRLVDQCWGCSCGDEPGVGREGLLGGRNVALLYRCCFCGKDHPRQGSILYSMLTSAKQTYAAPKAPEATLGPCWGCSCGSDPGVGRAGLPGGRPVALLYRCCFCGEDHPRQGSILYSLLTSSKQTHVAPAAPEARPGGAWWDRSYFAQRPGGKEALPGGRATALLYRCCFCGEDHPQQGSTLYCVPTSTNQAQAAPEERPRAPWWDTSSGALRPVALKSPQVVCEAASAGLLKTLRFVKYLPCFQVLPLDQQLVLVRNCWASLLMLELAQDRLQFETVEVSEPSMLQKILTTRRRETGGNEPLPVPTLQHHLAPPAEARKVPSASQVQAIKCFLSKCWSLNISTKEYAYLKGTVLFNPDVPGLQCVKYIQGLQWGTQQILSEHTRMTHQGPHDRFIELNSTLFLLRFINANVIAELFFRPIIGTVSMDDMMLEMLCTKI

cells = format: functional, cell-based

CO[C@@H]1CN(C)C(=O)c2cc(NC(=O)Nc3cc(Cl)cc(Cl)c3)ccc2OC[C@H](C)NC[C@@H]1C
AC50 [1]: 15.8 µM (active) | AC50 [2]: 13.1 µM (active)

CCOC(=O)N1CCN(C/C(C)=C/c2ccccc2)CC1
EC50 (Mu-type opioid receptor): 92.5 µM (inactive) | IC50 (Coagulation factor XII): > 50 µM (inactive) | EC50 [3]: 11.5 µM (inactive)

C[C@@H]1CN([C@H](C)CO)C(=O)c2cc(NC(=O)C3CCOCC3)ccc2O[C@H]1CN(C)S(=O)(=O)c1ccc(Cl)cc1
AC50 [4]: 34.8 µM (active) | AC50 [5]: 34.2 µM (active)

COc1cccc(-c2ccc([C@H]3[C@@H](CO)N(C(=O)c4ccccn4)[C@H]3C#N)cc2)c1
AC50 [6]: 68.1 µM (active) | AC50 [7]: 39.2 µM (active) | AC50 (Paired box protein Pax-8): 7.31 µM (active)

O=c1c2cc([N+](=O)[O-])ccc2nc(CN2CCOCC2)n1-c1ccccc1F
IC50 [8]: 9.6 µM (active)

Cc1cc(C(=O)Nc2ccc3c(c2)C(=O)N(C)[C@@H]2CC[C@H](CC(=O)NCc4ccc(-c5ccccc5)cc4)O[C@@H]2CO3)no1
AbsAC35 [9]: 211.39 µM

COc1ccc(C#Cc2ccc(C(=O)N3CCC(=O)C(C)(C)C3)cc2)cc1
IC50 [10]: 3.13 µM

CCn1cc(CNC(=O)c2ccc(OC)c(OC3CCN(C(C)C)CC3)c2)cn1
IC50 [11]: 6.81 µM (active)

CCOC(=O)C1CCN(S(=O)(=O)c2cccc(-c3cn4cc(C)ccc4n3)c2)CC1
AC50 [12]: > 52 µM (inactive)

COc1ccc(OC)c(/C=N/NC(=O)CC2C(=O)NN=C2C)c1 (configuration not stated)
IC50 (Beta-lactamase [13]): > 59.6 µM (inactive) | IC50 (Beta-lactamase [14]): > 59.6 µM (inactive) | IC50 (Beta Lactamase [15]): 2.13 µM (active) | IC50 (Beta-lactamase [16]): > 59.6 µM (inactive) | IC50 (Beta Lactamase [17]): 6.1 µM (active)

COC(=O)C1=C(C)N(Cc2ccc(Cl)cc2)C(=S)NC1c1cccc(OC)c1 (configuration not stated)
AC50 (Cryptococcus neoformans): 57.5 µM (active) | AC50 [18]: 11.4 µM (active) | AC50 (HEK293): 11.4 µM (active) | AC50 (HeLa): > 52 µM (inactive)

COC(=O)C1=C(c2cc3ccccc3s2)C[C@@H]2CC[C@H]1N2C(=O)NCc1ccc(C(F)(F)F)cc1
IC50 [19]: > 69.5 µM (inactive) | EC50 [20]: 8.21 µM (active) | EC50 [21]: 3.12 µM (active) | IC50 [22]: > 7.72 µM (active)

COc1ccc(N2C(=O)C3C(C2=O)C(C(=O)c2ccc(Cl)cc2)N2CCCC32)cc1 (configuration not stated)
IC50 [23]: 4.36 µM (active) | IC50 [24]: 5.56 µM (active)

COc1ccc(NC(=O)Nc2ccc3c(c2)C(=O)N([C@H](C)CO)C[C@H](C)[C@H](CN(C)CC2CCCCC2)OCCCC[C@H](C)O3)cc1
AC50 [25]: 40.3 µM (active) | AC50 [26]: 38.9 µM (active) | AC50 [27]: 17.9 µM (active) | AC50 [28]: 42.7 µM (active) | AC50 [29]: 13.7 µM (active)

CC(=O)Nc1ccc(-c2ccnc3c2CC(C(=O)NCc2ccco2)O3)cc1 (configuration not stated)
IC50 [30]: > 67.5 µM (inactive) | IC50 (cells): > 67.5 µM (inactive)
